Assay results from article PMC4167698, “Fatty Acid Esters of Phloridzin Induce Apoptosis of Human Liver Cancer Cells through Altered Gene Expression” (PLoS ONE, 2014).

Columns and labels:
Assay type in all cases: cell-based, human
THP-1 cells = test: MTS cell proliferation assay, THP-1; conditions: Homo sapiens, MTS
Experimental: (§1) Cell viability was determined by using the MTS assay. In brief, HepG2 cells (5×10^3 cells/100 µL/well), MDA-MB-231 (5×10^3 cells/100 µL/well), THP-1 (25×10^3/100 µL/well), normal human and rat hepatocytes (1×10^4 cells/100 µL/well) were plated in triplicate, in a 96 well sterile flat bottom tissue culture plates. […] Thereby, cells were exposed to various concentrations (0.1, 1, 10, 25, 50, 75, 100 µM) of each treatment. Controls consist of cells with media containing DMSO (<0.5%), test blank wells contained the test compound in media with no cells and blank wells contained media with no cells. After additional 3, 6, 12, 18 or 24 h, 20 µL of the MTS reagent in combination with the electron coupling agent, phenazine methosulfate were added to the wells and cells were incubated in a humidified incubator for 3 h. Absorbance at 490 nm (OD490) was measured by using a Flurostar Optima microplate reader (BMG Labtech, Cary, NC, USA) to obtain the number of viable cells relative to the control population. Percentage of viability of the test compound treated cells are expressed as percentage compared to control (<0.5% DMSO). […] The selective index (SI) of the fatty acid esters of phloridzin is defined as the ratio of cytotoxicity (EC50 values) on normal HP-F cells to solid cancer HepG2, MDA-MB-231 cells (SI = EC50 on HP-F cells/EC50 on solid cancer cells). Samples with SI values greater than three were considered to have high selectivity towards cancer cells.

MDA-MB-231 cells = test: MTS cell proliferation assay, MDA-MB-231; conditions: Homo sapiens, MTS
Experimental: as §1

HepG2 cells [1] = test: Annexin V/7-AAD apoptosis/necrosis fluorescence microscopy; conditions: HepG2, 100 µM, 24 h
Experimental: HepG2 cells were seeded into Nunc Lab-Tek two chamber slide (Sigma-Aldrich Canada) at a density of 1×10^6 cells/chamber. […] The slides were washed with diluted phosphate buffered saline. After removing the chamber, each slide was added with 50 µL of Dual Detection Reagent containing apoptosis detection reagent (Annexin V-EnzoGold) and necrosis detection reagent (7-AAD) in 1X binding buffer. The samples were incubated at room temperature for 15 min in the dark. After staining, the cells were washed with binding buffer and covered with a glass coverslip. The stained cells were observed under a fluorescence Zeiss Axiovert 200 m inverted microscope (Carl Zeiss, Toronto, ON, Canada) at magnification of ×40 with a filter set for Annexin V-EnzoGold (Ex/Em: 550/570 nm) and 7-AAD (Ex/Em: 546/647 nm).

HepG2 cells [2] = test: MTS cell proliferation assay, HepG2; conditions: Homo sapiens, MTS
Experimental: as §1

[3] = system: caspase 3 activity of HepG2 cells; test: Caspase-3 colorimetric activity assay; conditions: HepG2, 100 µM, 24 h, compared to DMSO control
Experimental: The activity of caspase 3 enzyme was measured using caspase 3 colorimetric assay kit purchased from Sigma-Aldrich. […] Cells were lysed and the protein content of cell lysate was quantified by the BCA protein assay (Thermo Fisher Scientific Inc., Ottawa, ON, Canada). Caspase-3 activity was measured in the 200 µg of cell lysate using the caspase-specific peptide substrate, DEVD (Asp-Glu-Val-Asp), conjugated to reporter p-nitroanaline (ρ-NA) molecules.

HepG2 cells [4] = test: DNA fragmentation (apoptotic DNA ladder); conditions: HepG2, 100 µM, 24 h, agarose gel
Experimental: HepG2 (1×10^5) cells were seeded in 24-well culture plates and were allowed to adhere overnight. […] The plates were re-incubated for another 24 h. DNA fragmentation was detected using ApoTarget Quick Apoptotic DNA Ladder Detection Kit (Invitrogen, Burlington, ON, Canada) according to the manufacturer’s protocol. The principle involves detecting the internucleosomal DNA fragments formed during apoptosis. Briefly, floating dead cells and trypsinized adherent cells were collected and centrifuged at 1,000 rpm for 10 min. After washing with diluted phosphate buffered saline, the cells were lysed with 35 µL TE lysis buffer (a kit component). To the lysate, 5 µL of Enzyme A (a kit component) was added and incubated at 37°C for 10 min. Afterwards, 5 µL of Enzyme B (a kit component) was added, gently mixed and incubated at 50°C for 30 min. The DNA was precipitated with the ammonium acetate and absolute ethanol at −20°C. After centrifugation (10 min at 12,000 rpm) and air drying, the DNA pellet was dissolved in 30 µL of DNA suspension buffer. For detecting the DNA ladder, the extracted DNA samples were run on a 1.2% agarose gel containing 0.5 µg/mL gel red in Tris-Borate-EDTA (TBE) buffer. After electrophoresis, the gel image was captured using Gel Doc 100 system (Bio-Rad, Mississauga, ON, Canada).

O=C(CCc1ccc(O)cc1)c1c(O)cc(O)cc1O [Phloretin] gave an EC50 (THP-1 cells; THP-1, 3 h) of 73.5 ± 5.2 µM, an EC50 (THP-1 cells; THP-1, 6 h) of 64.1 ± 5.4 µM and an EC50 (THP-1 cells; THP-1, 12 h) of 60.1 ± 4.2 µM. The EC50 (THP-1 cells; THP-1, 18 h) was 56.9 ± 3 µM, the EC50 (THP-1 cells; THP-1, 24 h) was 39.6 ± 1.7 µM and the EC50 (MDA-MB-231 cells; MDA-MB-231, 3 h) was greater than 100 µM. It also gave an EC50 (MDA-MB-231 cells; MDA-MB-231, 6 h) greater than 100 µM, an EC50 (MDA-MB-231 cells; MDA-MB-231, 12 h) greater than 100 µM and an EC50 (MDA-MB-231 cells; MDA-MB-231, 18 h) greater than 100 µM. The EC50 (MDA-MB-231 cells; MDA-MB-231, 24 h) was greater than 100 µM, the “apoptosis/necrosis by Annexin V/7-AAD staining” value (HepG2 cells [1]) was “less apoptotic death of cells” and the EC50 (HepG2 cells [2]; HepG2, 3 h) was greater than 100 µM. It also gave an EC50 (HepG2 cells [2]; HepG2, 6 h) greater than 100 µM, an EC50 (HepG2 cells [2]; HepG2, 12 h) greater than 100 µM and an EC50 (HepG2 cells [2]; HepG2, 18 h) greater than 100 µM. The EC50 (HepG2 cells [2]; HepG2, 24 h) was 97.2 µM, the “caspase 3 activity” value [3] was “enhanced caspase 3 activity but significantly (P<0.001) lower than fatty acid esters of phloridzin or the drug” and the “internucleosomal DNA fragmentation” value (HepG2 cells [4]) was “only intact genomic DNA”.

Work on O=C(CCc1ccc(O)cc1)c1c(O)cc(O)cc1O[C@@H]1O[C@H](CO)[C@@H](O)[C@H](O)[C@H]1O [Phloridzin, phloretin 2′-O-glucoside] yielded an EC50 (THP-1 cells; THP-1, 3 h) greater than 100 µM, an EC50 (THP-1 cells; THP-1, 6 h) greater than 100 µM and an EC50 (THP-1 cells; THP-1, 12 h) greater than 100 µM. For the same compound, the EC50 (THP-1 cells; THP-1, 18 h) was greater than 100 µM, the EC50 (THP-1 cells; THP-1, 24 h) was greater than 100 µM and the EC50 (MDA-MB-231 cells; MDA-MB-231, 3 h) was greater than 100 µM. The EC50 (MDA-MB-231 cells; MDA-MB-231, 6 h) was greater than 100 µM, the EC50 (MDA-MB-231 cells; MDA-MB-231, 12 h) was greater than 100 µM and the EC50 (MDA-MB-231 cells; MDA-MB-231, 18 h) was greater than 100 µM. For the same compound, the EC50 (MDA-MB-231 cells; MDA-MB-231, 24 h) was greater than 100 µM, the “apoptosis/necrosis by Annexin V/7-AAD staining” value (HepG2 cells [1]) was “less apoptotic death of cells” and the EC50 (HepG2 cells [2]; HepG2, 3 h) was greater than 100 µM. It also gave an EC50 (HepG2 cells [2]; HepG2, 6 h) greater than 100 µM, an EC50 (HepG2 cells [2]; HepG2, 12 h) greater than 100 µM and an EC50 (HepG2 cells [2]; HepG2, 18 h) greater than 100 µM. For the same compound, the EC50 (HepG2 cells [2]; HepG2, 24 h) was greater than 100 µM, the “caspase 3 activity” value [3] was “enhanced caspase 3 activity but significantly (P<0.001) lower than fatty acid esters of phloridzin or the drug” and the “internucleosomal DNA fragmentation” value (HepG2 cells [4]) was “only intact genomic DNA”.
